Measurements reported in patent US9545105B2, “1-(heterocyclic carbonyl) piperidines” (BAYER INTELLECTUAL PROPERTY GMBH, priority 2010, dated 2017).

Tested on: not listed separately
Assay: log P by HPLC on reversed-phase column (C 18), EEC Directive 79/831 Annex V.A8
Type: physicochemical
Conditions: HPLC on reversed-phase column (C 18); 40° C.; 0.1% aqueous formic acid and acetonitrile; linear gradient 10% to 90% acetonitrile
Description: In table 1, the log P values were determined in accordance with EEC Directive 79/831 Annex V.A8 by HPLC (High Performance Liquid Chromatography) on a reversed-phase column (C 18), using the method described below: Temperature: 40° C.; Mobile phases: 0.1% aqueous formic acid and acetonitrile; linear gradient from 10% acetonitrile to 90% acetonitrile. Calibration was carried out using unbranched alkan-2-ones (comprising 3 to 16 carbon atoms) with known log P values (determination of the log P values by the retention times using linear interpolation between two successive alkanones). lambda-max-values were determined using UV-spectra from 200 nm to 400 nm and the peak values of the chromatographic signals.

logP	SMILES
3.35	Cc1ccc(OCC2CCCCN2C(=O)c2c(C(F)F)nn(C)c2F)cc1 (stereo not drawn) [Example 150]
3.55	Cc1ccc(OCC2CCCCN2C(=O)c2c(C(F)F)nn(C)c2Cl)cc1 (stereo not drawn) [Example 149]
3.59	Cn1nc(C(F)F)c(C(=O)N2CCCCC2Cc2cccc(C(F)(F)F)c2)c1F (stereo not drawn) [Example 169]
3.87	Cc1cc(C(=O)N2CCCCC2Cc2ccccc2C)c(C)o1 (stereo not drawn) [Example 141]
3.87	CCC(c1ccccc1)C1CCCCN1C(=O)c1c(C(F)F)nn(C)c1Cl (stereo not drawn) [Example 135]
4.49	Cn1nc(C(F)F)c(C(=O)N2CCCCC2CCOc2ccc(-c3ccccc3)cc2)c1Cl (stereo not drawn) [Example 188]
3.13	Cc1nn(C)c(F)c1C(=O)N1CCCCC1c1ccc(Br)s1 (stereo not drawn) [Example 124]
3.59	Cc1ccc(CC2CCCCN2C(=O)c2sc(C)nc2C(F)F)cc1 (stereo not drawn) [Example 148]
3.87	Cc1ccc(C2CCCCN2C(=O)c2c(C(F)F)nn(C)c2Cl)cc1C (stereo not drawn) [Example 8]
3.46	Cn1nc(C(F)F)c(C(=O)N2CCCCC2CCOc2ccc(F)cc2F)c1Cl (stereo not drawn) [Example 183]
2.44	Cc1nn(C)c(F)c1C(=O)N1CCCCC1c1ccc2c(c1)OCO2 (stereo not drawn) [Example 60]
3.71	Cn1nc(C(F)F)c(C(=O)N2CCCCC2c2cccc(Br)c2)c1Cl (stereo not drawn) [Example 96]
3.21	Cc1nc(C(F)F)c(C(=O)N2CCCCC2Cc2ccc(F)cc2)s1 (stereo not drawn) [Example 154]
3.25	Cn1nc(C(F)F)c(C(=O)N2CCCCC2CCc2cccs2)c1F (stereo not drawn) [Example 194]
4.09	Cn1nc(C(F)F)c(C(=O)N2CCCCC2CCOc2ccc3ccccc3c2)c1Cl (stereo not drawn) [Example 190]
3.57	Cc1cc(C(=O)N2CCCCC2Cc2ccc(F)cc2)c(C)o1 (stereo not drawn) [Example 155]
3.37	Cc1ccccc1C1CCCCN1C(=O)c1c(C(F)F)nn(C)c1Cl (stereo not drawn) [Example 5]
4.39	Cc1cc(C(=O)N2CCCCC2c2ccc3ccccc3c2)c(C)o1 (stereo not drawn) [Example 120]
3.67	Cn1nc(C(F)F)c(C(=O)N2CCCCC2c2ccc(Cl)cc2)c1Cl (stereo not drawn) [Example 55]
3.68	Cn1nc(C(F)F)c(C(=O)N2CCCCC2COc2ccc3ccccc3c2)c1F (stereo not drawn) [Example 173]
4.06	Cn1nc(C(F)F)c(C(=O)N2CCCCC2CCOc2ccc(Cl)cc2Cl)c1F (stereo not drawn) [Example 185]
3.33	Cc1cc(C(=O)N2CCCCC2c2ccc3c(c2)OCO3)c(C)o1 (stereo not drawn) [Example 58]
3.99	Cc1ccc(CC2CCCCN2C(=O)c2cc(C)oc2C)cc1 (stereo not drawn) [Example 146]
4.16	CCc1noc(C)c1C(=O)N1CCCCC1c1cccc(Oc2ccccc2)c1 (stereo not drawn) [Example 110]
3.19	Cc1nc(C(F)F)c(C(=O)N2CCCCC2Cc2cccc(F)c2)s1 (stereo not drawn) [Example 151]

Tested on: Alternaria solani
Assay: In vivo preventive test on Alternaria solani (tomato)
Conditions: 500 ppm of active ingredient, evaluated 7 days after inoculation
Description: Solvent: 49 parts by weight of N,N-dimethylformamide Emulsifier: 1 part by weight of Alkylarylpolyglycolether To produce a suitable preparation of active compound, 1 part by weight of active compound is mixed with the stated amounts of solvent and emulsifier, and the concentrate is diluted with water to the desired concentration. To test for preventive activity, young plants are sprayed with the preparation of active compound at the stated rate of application. One day after this treatment, the plants are inoculated with an aqueous spore suspension of Alternaria solani. The plants remain for one day in an incubation cabinet at approximately 22° C. and a relative atmospheric humidity of 100%. Then the plants are placed in an incubation cabinet at approximately 20° C. and a relative atmospheric humidity of 96%. The test is evaluated 7 days after the inoculation. 0% means an efficacy which corresponds to that of the untreated control while an efficacy of 100% means that no disease is observed.

SMILES	Efficacy
Cc1ccc(OCC2CCCCN2C(=O)c2c(C(F)F)nn(C)c2F)cc1 (stereo not drawn) [Example 150]	100%
Cc1ccc(OCC2CCCCN2C(=O)c2c(C(F)F)nn(C)c2Cl)cc1 (stereo not drawn) [Example 149]	95%
Cn1nc(C(F)F)c(C(=O)N2CCCCC2Cc2cccc(C(F)(F)F)c2)c1F (stereo not drawn) [Example 169]	100%
Cc1cc(C(=O)N2CCCCC2Cc2ccccc2C)c(C)o1 (stereo not drawn) [Example 141]	90%
CCC(c1ccccc1)C1CCCCN1C(=O)c1c(C(F)F)nn(C)c1Cl (stereo not drawn) [Example 135]	95%
Cn1nc(C(F)F)c(C(=O)N2CCCCC2CCOc2ccc(-c3ccccc3)cc2)c1Cl (stereo not drawn) [Example 188]	70%
Cc1nn(C)c(F)c1C(=O)N1CCCCC1c1ccc(Br)s1 (stereo not drawn) [Example 124]	95%
Cc1ccc(CC2CCCCN2C(=O)c2sc(C)nc2C(F)F)cc1 (stereo not drawn) [Example 148]	94%
Cc1ccc(C2CCCCN2C(=O)c2c(C(F)F)nn(C)c2Cl)cc1C (stereo not drawn) [Example 8]	94%
Cn1nc(C(F)F)c(C(=O)N2CCCCC2CCOc2ccc(F)cc2F)c1Cl (stereo not drawn) [Example 183]	95%
Cc1nn(C)c(F)c1C(=O)N1CCCCC1c1ccc2c(c1)OCO2 (stereo not drawn) [Example 60]	94%
Cn1nc(C(F)F)c(C(=O)N2CCCCC2c2cccc(Br)c2)c1Cl (stereo not drawn) [Example 96]	100%
Cc1nc(C(F)F)c(C(=O)N2CCCCC2Cc2ccc(F)cc2)s1 (stereo not drawn) [Example 154]	89%
Cn1nc(C(F)F)c(C(=O)N2CCCCC2CCc2cccs2)c1F (stereo not drawn) [Example 194]	100%
Cn1nc(C(F)F)c(C(=O)N2CCCCC2CCOc2ccc3ccccc3c2)c1Cl (stereo not drawn) [Example 190]	90%
Cc1cc(C(=O)N2CCCCC2Cc2ccc(F)cc2)c(C)o1 (stereo not drawn) [Example 155]	78%
Cc1ccccc1C1CCCCN1C(=O)c1c(C(F)F)nn(C)c1Cl (stereo not drawn) [Example 5]	90%
Cc1cc(C(=O)N2CCCCC2c2ccc3ccccc3c2)c(C)o1 (stereo not drawn) [Example 120]	80%
Cn1nc(C(F)F)c(C(=O)N2CCCCC2c2ccc(Cl)cc2)c1Cl (stereo not drawn) [Example 55]	95%
Cn1nc(C(F)F)c(C(=O)N2CCCCC2COc2ccc3ccccc3c2)c1F (stereo not drawn) [Example 173]	100%
Cn1nc(C(F)F)c(C(=O)N2CCCCC2CCOc2ccc(Cl)cc2Cl)c1F (stereo not drawn) [Example 185]	100%
Cc1cc(C(=O)N2CCCCC2c2ccc3c(c2)OCO3)c(C)o1 (stereo not drawn) [Example 58]	78%
Cc1ccc(CC2CCCCN2C(=O)c2cc(C)oc2C)cc1 (stereo not drawn) [Example 146]	95%
CCc1noc(C)c1C(=O)N1CCCCC1c1cccc(Oc2ccccc2)c1 (stereo not drawn) [Example 110]	78%
Cc1nc(C(F)F)c(C(=O)N2CCCCC2Cc2cccc(F)c2)s1 (stereo not drawn) [Example 151]	95%

Tested on: Pyrenophora teres
Assay: In vivo preventive test on Pyrenophora teres (barley)
Conditions: 500 ppm of active ingredient, evaluated 7-9 days after inoculation
Description: Solvent: 49 parts by weight of N,N-dimethylformamide Emulsifier: 1 part by weight of alkylaryl polyglycol ether To produce a suitable preparation of active compound, 1 part by weight of active compound is mixed with the stated amounts of solvent and emulsifier, and the concentrate is diluted with water to the desired concentration. To test for preventive activity, young plants are sprayed with the preparation of active compound at the stated rate of application. One day after this treatment, the plants are inoculated with an aqueous spore suspension of Pyrenophora teres. The plants remain for 48 hours in an incubation cabinet at 22° C. and a relative atmospheric humidity of 100%. Then the plants are placed in a greenhouse at a temperature of approximately 20° C. and a relative atmospheric humidity of approximately 80%. The test is evaluated 7-9 days after the inoculation. 0% means an efficacy which corresponds to that of the untreated control while an efficacy of 100% means that no disease is observed.

SMILES	Efficacy
Cc1ccc(OCC2CCCCN2C(=O)c2c(C(F)F)nn(C)c2F)cc1 (stereo not drawn) [Example 150]	100%
Cc1ccc(OCC2CCCCN2C(=O)c2c(C(F)F)nn(C)c2Cl)cc1 (stereo not drawn) [Example 149]	95%
Cn1nc(C(F)F)c(C(=O)N2CCCCC2Cc2cccc(C(F)(F)F)c2)c1F (stereo not drawn) [Example 169]	100%
CCC(c1ccccc1)C1CCCCN1C(=O)c1c(C(F)F)nn(C)c1Cl (stereo not drawn) [Example 135]	94%
Cn1nc(C(F)F)c(C(=O)N2CCCCC2CCOc2ccc(-c3ccccc3)cc2)c1Cl (stereo not drawn) [Example 188]	95%
Cc1nn(C)c(F)c1C(=O)N1CCCCC1c1ccc(Br)s1 (stereo not drawn) [Example 124]	100%
Cc1ccc(CC2CCCCN2C(=O)c2sc(C)nc2C(F)F)cc1 (stereo not drawn) [Example 148]	95%
Cc1ccc(C2CCCCN2C(=O)c2c(C(F)F)nn(C)c2Cl)cc1C (stereo not drawn) [Example 8]	90%
Cn1nc(C(F)F)c(C(=O)N2CCCCC2CCOc2ccc(F)cc2F)c1Cl (stereo not drawn) [Example 183]	100%
Cc1nn(C)c(F)c1C(=O)N1CCCCC1c1ccc2c(c1)OCO2 (stereo not drawn) [Example 60]	80%
Cn1nc(C(F)F)c(C(=O)N2CCCCC2c2cccc(Br)c2)c1Cl (stereo not drawn) [Example 96]	100%
Cc1nc(C(F)F)c(C(=O)N2CCCCC2Cc2ccc(F)cc2)s1 (stereo not drawn) [Example 154]	100%
Cn1nc(C(F)F)c(C(=O)N2CCCCC2CCc2cccs2)c1F (stereo not drawn) [Example 194]	100%
Cn1nc(C(F)F)c(C(=O)N2CCCCC2CCOc2ccc3ccccc3c2)c1Cl (stereo not drawn) [Example 190]	95%
Cc1ccccc1C1CCCCN1C(=O)c1c(C(F)F)nn(C)c1Cl (stereo not drawn) [Example 5]	95%
Cc1cc(C(=O)N2CCCCC2c2ccc3ccccc3c2)c(C)o1 (stereo not drawn) [Example 120]	70%
Cn1nc(C(F)F)c(C(=O)N2CCCCC2c2ccc(Cl)cc2)c1Cl (stereo not drawn) [Example 55]	80%
Cn1nc(C(F)F)c(C(=O)N2CCCCC2COc2ccc3ccccc3c2)c1F (stereo not drawn) [Example 173]	95%
Cn1nc(C(F)F)c(C(=O)N2CCCCC2CCOc2ccc(Cl)cc2Cl)c1F (stereo not drawn) [Example 185]	95%
